Here are results for one molecule from patent publication US9808496B2, “Use of a myrtle extract as an anti-biofilm agent against P. acnes” (PIERRE FABRE DERMO-COSMETIQUE, priority 2012, dated 2017).

What all share (format): cell-based, Propionibacterium acnes
One assay relates to P. acnes B872 (eryS). Nature of the assay: Activity of the combination erythromycin/myrtle extract on P. acnes biofilm (24-well microplate). Conditions: erythromycin 1000 μg/ml alone, 24 h contact on 48 h biofilm. On the procedure: (§1) Myrtle extract is prepared according to example 2.
(§2) • Four Propionibacterium acnes strains were selected: Two Erythromycin-Resistant Strains (ERY R) • Propionibacterium acnes CIP 110371 • clinical isolate R4 Two Erythromycin-Sensitive Strains (ERY S) • Propionibacterium acnes CIP 53117T • clinical isolate B872 Protocol
(§3) A titrated suspension of P. acnes (about 10^6 CFU/ml), in minimal broth allowing no bacterial growth, was deposited in the wells of a 24-well microplate.
(§4) The microplates are placed under anaerobic conditions at 37±2° C. for 48 h, the time established for biofilm to form.
(§5) After 48 h, the supernatant of each well is discarded and then the wells are rinsed. Erythromycin and myrtle extract at various concentrations are added for a contact time of 24 h on the adhered cells (72 hours of adhesion in total).
(§6) The erythromycin concentration selected is 1000 μg/ml.
(§7) After 72 h of adhesion: • planktonic cells are counted • adhered (sessile) cells are counted after rinsing the well and then scraping in tryptone salt
(§8) Controls were prepared in parallel (adhered+planktonic cells) • 72 h biofilm control (with the medium changed at 48 h) • myrtle control at various concentrations (added after 48 h/24 h of contact) • 1000 μg/ml erythromycin control (added at 48 h/24 h of contact) • myrtle extract control at the concentrations tested
(§9) For all the wells in contact with erythromycin, 1 ml of each dilution is filtered on a membrane (Microfil®, Millipore) and then the filter is rinsed three times with 50 ml of sterile distilled water. The membranes are deposited on Columbia agar+5% sheep blood. The plates are incubated at 37±2° C. under anaerobic conditions. After 72 h to 96 h of incubation, the colony forming units (CFUs) are counted.
(§10) For all the biofilm controls and the myrtle extract alone, 100 μl of each dilution is inoculated by streaking on Columbia agar+5% sheep blood. The plates are incubated at 37±2° C. under anaerobic conditions. After 72 h to 96 h of incubation, the CFUs are counted. Results
(§11) This test consisted in evaluating the activity of erythromycin (1000 μg/ml) combined with myrtle extract, at concentrations of 0.03%, 0.001% and 0.0001%.
(§12) The results are expressed in log of the population counted.

Assay [1] concerns P. acnes CIP 110371 (eryR). The assay is described as above. Conditions: erythromycin 1000 μg/ml alone, 24 h contact on 48 h biofilm, limit of detection 1.3 log. On the procedure: as §1, §2, §3, §4, §5, §6, §7, §8, §9, §10, §11, §12
Assay [2] deals with P. acnes CIP 53117T (eryS). Described as above. Conditions: erythromycin 1000 μg/ml alone, 24 h contact on 48 h biofilm, limit of detection 1.3 log. On the procedure: as §1, §2, §3, §4, §5, §6, §7, §8, §9, §10, §11, §12
The subject of the next assay is P. acnes R4 (eryR). The assay is described as above. The following applies: erythromycin 1000 μg/ml alone, 24 h contact on 48 h biofilm. On the procedure:
as §1, §2, §3, §4, §5, §6, §7, §8, §9, §10, §11, §12

Assay [3] deals with two erythromycin-resistant strains (ERY R). Nature of the assay: Bactericidal activity of erythromycin on isolated bacteria. Conditions: 1000 μg/ml. On the procedure:
as §6

In assay [4] the test system is P. acnes eryS strains and eryR strains. Nature of the assay: Erythromycin/myrtle extract on P. acnes biofilm, general conclusion over the strains. On the procedure: as §2, §3, §4, §5, §7

As to `CC[C@H]1OC(=O)[C@H](C)[C@@H](O[C@H]2C[C@@](C)(OC)[C@@H](O)[C@H](C)O2)[C@H](C)[C@@H](O[C@@H]2O[C@H](C)C[C@H](N(C)C)[C@H]2O)[C@](C)(O)C[C@@H](C)C(=O)[C@H](C)[C@@H](O)[C@]1(C)O` [Ery, erythromycin], the “Planktonic cells, Log (number of CFU/well)” value in the assay on P. acnes B872 (eryS) (untreated control 4.0) was 1.3 Log (number of CFU/well); in assay [1] (untreated control 5.0), 4.2 Log (number of CFU/well); in assay [2] (untreated control 5.5) it was 1.3 Log (number of CFU/well); with P. acnes R4 (eryR) (untreated control 3.7) it was 3.5 Log (number of CFU/well). Further, the “Adhered cells, Log (number of CFU/well)” value in the assay with P. acnes B872 (eryS) (untreated control 4.4) is recorded as 4.0 Log (number of CFU/well); in assay [1] (untreated control 5.3) it was 4.1 Log (number of CFU/well); in assay [2] (untreated control 5.1), 4.3 Log (number of CFU/well); in the assay with P. acnes R4 (eryR) (untreated control 4.5), 3.5 Log (number of CFU/well). The Bactericidal activity entry in assay [3] is “did not have bactericidal activity”. Besides, the “Bactericidal activity of erythromycin alone” value in assay [4] is listed as “high”.
